From the NIST ThermoML archive (doi:10.1021/je034022n)
Numbers after ± are expanded uncertainties.

Details: 101.33 kPa, Liquid

For `Cc1ccc(C)cc1` [1,4-dimethylbenzene], which mass density (298.15 K) is on record?
The mass density was 856.62 ± 1.4 kg/m3.

What about the speed of sound (298.15 K) of the same molecule?
The speed of sound was 1308 ± 6 m/s.

What about the mass density (303.15 K) of the same molecule?
The mass density was 852.25 ± 1.4 kg/m3.

What about the mass density (308.15 K) of the same molecule?
The mass density was 847.88 ± 1.5 kg/m3.

And the speed of sound (308.15 K)?
The speed of sound was 1276 ± 6 m/s.

What about the mass density (313.15 K) of the same molecule?
The mass density was 843.64 ± 1.5 kg/m3.

Which results are given for `CCCCOCCO` [2-butoxyethan-1-ol]?
mass density (298.15 K): 896.25 ± 1.2 kg/m3; speed of sound (298.15 K): 1304 ± 6 m/s; mass density (303.15 K): 892.03 ± 1.2 kg/m3; mass density (308.15 K): 888.91 ± 1.2 kg/m3; speed of sound (308.15 K): 1285 ± 6 m/s; mass density (313.15 K): 883.4 ± 1.2 kg/m3

For `c1ccccc1` [benzene], which mass density (298.15 K) is on record?
Its mass density is 873.61 ± 1.3 kg/m3.

What about the speed of sound (298.15 K) of the same molecule?
The speed of sound was 1299 ± 6 m/s.

And the mass density (303.15 K)?
Its mass density is 868.29 ± 1.3 kg/m3.

What about the mass density (308.15 K) of the same molecule?
The mass density was 862.96 ± 1.4 kg/m3.

What about the speed of sound (308.15 K) of the same molecule?
Its speed of sound is 1260 ± 5 m/s.

And the mass density (313.15 K)?
Its mass density is 857.97 ± 1.4 kg/m3.

What does the source list for `C=C(C)C(=O)OC` [methyl methacrylate]?
mass density (298.15 K): 937.63 ± 0.92 kg/m3; speed of sound (298.15 K): 1181 ± 5 m/s; mass density (303.15 K): 931.74 ± 0.96 kg/m3; mass density (308.15 K): 925.74 ± 1 kg/m3; speed of sound (308.15 K): 1153 ± 5 m/s; mass density (313.15 K): 920.26 ± 1 kg/m3

For `Cc1ccccc1` [toluene], which mass density (298.15 K) is on record?
Its mass density is 862.2 ± 1.4 kg/m3.

And the speed of sound (298.15 K)?
Its speed of sound is 1304 ± 6 m/s.

What about the mass density (303.15 K) of the same molecule?
The mass density was 857.55 ± 1.4 kg/m3.

What about the mass density (308.15 K) of the same molecule?
Its mass density is 852.86 ± 1.4 kg/m3.

And the speed of sound (308.15 K)?
Its speed of sound is 1262 ± 5 m/s.

What about the mass density (313.15 K) of the same molecule?
Its mass density is 848.16 ± 1.5 kg/m3.
